In patent publication US3974184A, “Microbial production of certain isoflavones” (Zaidan Hojin Biseibutsu Kagaku Kenkyu Kai, priority 1973, dated 1976):
Entries after “also recorded” stand apart in the source; their conditions may differ. Read-outs that look alike come from different tables or passages of the source.

Assays:
tyrosine hydroxylase = test: Inhibition of tyrosine hydroxylase; type: biochemical; conditions: at 100 .nu./cc
[1] = system: spontaneously hypertensive rats; test: Blood pressure lowering action in spontaneously hypertensive rats; type: in vivo; conditions: for blood pressure lowering action: abdominal cavity; for blood pressure lowering: in words
Source text: The inventors also examined the blood pressure lowering action of the compounds (I), (II) and (III) by administering them in the abdominal cavity of spontaneously hypertensive rats.

bacteria = test: Inhibiting action against growth of bacteria; type: cell-based; conditions: at 100 .nu./cc
fungi = test: Inhibiting action against growth of fungi; type: cell-based; conditions: at 100 .nu./cc
dopamin-β-hydroxylase = molecular target: T1, dopamin-β-hydroxylase (Bos taurus, UniProt P15101); test: Inhibition of dopamin-β-hydroxylase; type: biochemical; conditions: at 100 .nu./cc
T1 sequence (P15101 1-610): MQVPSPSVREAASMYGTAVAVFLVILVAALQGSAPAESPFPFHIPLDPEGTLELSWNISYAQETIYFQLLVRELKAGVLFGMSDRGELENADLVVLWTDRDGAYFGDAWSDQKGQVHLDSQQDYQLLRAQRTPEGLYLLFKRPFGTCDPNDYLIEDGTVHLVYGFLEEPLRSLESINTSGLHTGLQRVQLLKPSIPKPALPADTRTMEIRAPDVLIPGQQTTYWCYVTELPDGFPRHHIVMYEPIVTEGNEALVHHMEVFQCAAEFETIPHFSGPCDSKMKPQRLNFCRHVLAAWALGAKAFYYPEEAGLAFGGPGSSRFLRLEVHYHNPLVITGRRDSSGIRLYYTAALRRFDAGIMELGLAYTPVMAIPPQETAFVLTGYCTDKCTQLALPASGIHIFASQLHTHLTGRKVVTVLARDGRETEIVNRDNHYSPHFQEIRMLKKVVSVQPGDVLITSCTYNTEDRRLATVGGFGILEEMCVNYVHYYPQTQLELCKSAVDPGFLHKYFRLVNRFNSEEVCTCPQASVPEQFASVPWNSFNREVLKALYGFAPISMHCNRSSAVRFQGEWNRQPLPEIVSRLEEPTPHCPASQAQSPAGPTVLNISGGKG

Solubility = type: physicochemical
Source text: Now the extractive purification of the compounds (I), (II) and (III) will be described. […] These compounds are extracted from the culture filtrate under acidic conditions with butanol, butyl acetate, etc. or also from the fungus solid body (mycelium) with methanol, acetone, etc. The filtrate from the mycelial extract is concentrated by distillation under diminished pressure and the concentrated liquid, after having been adjusted to be acidic, is subjected to an extraction operation with butyl acetate or butanol. The thusly extracted liquid is mixed with the solution of butyl acetate or butanol separately extracted from the culture liquid, and then concentrated to dryness under diminished pressure.

histidine decarboxylase = molecular target: T2, histidine decarboxylase (Homo sapiens, UniProt P19113); test: Inhibition of histidine decarboxylase (formation of histamine-2-14C); type: biochemical; conditions: for inhibiting action against histidine decarboxylase: in words; for IC50: read-out: concentration for 50% inhibition ratio of histidine decarboxylase (converted)
T2 sequence (P19113 1-662): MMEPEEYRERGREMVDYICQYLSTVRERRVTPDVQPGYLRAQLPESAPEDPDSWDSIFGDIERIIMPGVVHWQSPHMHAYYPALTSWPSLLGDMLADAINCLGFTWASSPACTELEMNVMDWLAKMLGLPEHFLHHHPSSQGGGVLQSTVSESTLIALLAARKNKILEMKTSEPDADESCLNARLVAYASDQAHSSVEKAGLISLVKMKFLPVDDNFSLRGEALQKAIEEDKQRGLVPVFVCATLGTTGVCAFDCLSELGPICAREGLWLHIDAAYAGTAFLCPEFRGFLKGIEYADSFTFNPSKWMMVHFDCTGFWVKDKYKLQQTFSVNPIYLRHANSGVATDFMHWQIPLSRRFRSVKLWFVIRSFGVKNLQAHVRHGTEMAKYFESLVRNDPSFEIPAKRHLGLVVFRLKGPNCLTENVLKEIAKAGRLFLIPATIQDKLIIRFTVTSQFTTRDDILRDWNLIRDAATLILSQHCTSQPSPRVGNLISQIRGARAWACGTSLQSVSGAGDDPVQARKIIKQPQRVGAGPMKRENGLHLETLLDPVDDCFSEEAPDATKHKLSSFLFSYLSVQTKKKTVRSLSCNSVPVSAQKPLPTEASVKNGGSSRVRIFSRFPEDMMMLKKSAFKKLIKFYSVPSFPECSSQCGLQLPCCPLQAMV
Description: This inhibition is measured in the following manner:
The reaction liquid is prepared from 2.5 × 10^-^4 mole of L-histidine-2-^14 C (1.0 × 10^5 cpm), 3.7 × 10^-^5 mole of pyridoxal phosphate, 0.1 cc of histidine decarboxylase (protein content, 1 mg/cc), 0.1 cc of 0.67 mole phosphate buffer solution (pH 6.8) and sample solution. To this mixture there is added distilled water until 1 cc total volume of reaction liquid is obtained. The thusly prepared reaction liquid is then allowed to react for 2 hours at 37° C. and the formed histamine-2-^14 C is adsorbed on ammonia type "Amberlite CG-50". After washing the "Amberlite CG-50" with water, the adsorbed histamine is eluted with 1 N aqueous ammonia and a quantity of elute is sampled to measure its radioactivity by use of a liquid scintillation counter. The thusly measured radioactivity tells the quantity of formed histamine, so that the inhibition against histidine decarboxylase can be determined.

SMILES | inhibiting action against tyrosine hydroxylase (tyrosine hydroxylase) | blood pressure lowering action ([1]; 12.5 mg./kg., after 1 hour) [%] | blood pressure lowering action ([1]; 12.5 mg./kg., after 3 hours) [%] | blood pressure lowering action ([1]; 12.5 mg./kg., after 6 hours) [%] | blood pressure lowering action ([1]; 12.5 mg./kg., after 24 hours) [%] | blood pressure lowering action ([1]; 50 mg./kg., after 1 hour) [%] | blood pressure lowering action ([1]; 50 mg./kg., after 3 hours) [%] | blood pressure lowering action ([1]; 50 mg./kg., after 6 hours) [%] | blood pressure lowering action ([1]; 50 mg./kg., after 24 hours) [%] | blood pressure lowering [1] | inhibiting action against the growth of bacteria (bacteria) | inhibiting action against the growth of fungi (fungi) | inhibiting action against dopamin-β-hydroxylase (dopamin-β-hydroxylase) | solubility in alkaline water, methanol, ethanol and acetone (Solubility) | solubility in butanol, ethyl acetate and butyl acetate (Solubility) | inhibiting action against histidine decarboxylase (histidine decarboxylase) | IC50 (histidine decarboxylase; printed in parentheses) [µM] | IC50 (histidine decarboxylase) [µM] | blood pressure lowering action ([1]; 50 mg./kg., after 48 hours) [%] | other results
COc1ccc(-c2coc3cc(O)c(OC)c(O)c3c2=O)cc1O [Compound (I), 3',5,7-trihydroxy-4',6-dimethoxy-isoflavone] | no inhibiting action | 13.6 | 10.7 | 15.8 | 7.8 | 20.8 | 16.4 | 35.0 | 3.8 | lowered the blood pressure | no inhibiting action | no inhibiting action | no inhibiting action | soluble | slightly soluble | inhibit; also recorded: inhibiting action | 18 | 18.2 | – | –
COc1ccc(-c2coc3c(OC)c(O)cc(O)c3c2=O)cc1O [Compound (II), 3',5,7-trihydroxy-4',8-dimethoxy-isoflavone] | no inhibiting action | 10.4 | 34.4 | 32.8 | 18.0 | 22.3 | 35.9 | 35.3 | 23.9 | lowered the blood pressure | no inhibiting action | no inhibiting action | no inhibiting action | soluble | slightly soluble | inhibit; also recorded: inhibiting action | 4.5 | 4.54 | 16.3 | blood pressure lowering action ([1]; 3.1 mg./kg., after 1 hour): 21.0%; blood pressure lowering action ([1]; 3.1 mg./kg., after 3 hours): 26.3%; blood pressure lowering action ([1]; 3.1 mg./kg., after 6 hours): 28.0%; blood pressure lowering action ([1]; 3.1 mg./kg., after 24 hours): 22.0%; blood pressure lowering action ([1]; 3.1 mg./kg., after 48 hours): 13.4%; blood pressure lowering action ([1]; 12.5 mg./kg., after 48 hours): 18.0%
COc1ccc(-c2coc3c(OC)c(O)c(OC)cc3c2=O)cc1O [Compound (III), 3',7-dihydroxy-4',6,8-trimethoxy-isoflavone] | no inhibiting action | – | – | – | – | 11.9 | 13.0 | 17.3 | 7.0 | lowered the blood pressure | no inhibiting action | no inhibiting action | no inhibiting action | soluble | slightly soluble | inhibiting action | – | – | 3.0 | inhibition at 100 µg/mL (histidine decarboxylase; 2 h, at 100 .nu./cc, read-out: inhibition ratio against histidine decarboxylase): ~31.9%
